Earlier results, collected in patent publication US20120301532A1, “COMPOSITIONS AND METHODS FOR TREATING MATERIALS WITH INSECTICIDES AND POTENTIATING AGENTS” (ALLERGY TECHNOLOGIES, LLC, priority 2011, published 2012).

Test system: bed bugs
Settings: bed bug attractants, background statement

## O=C=O [CO2]
  effective attractant range: ≥ 86 centimeters
